Measured values published in patent US9790503B2, “VHZ for diagnosis and treatment of cancer” (AGENCY FOR SCIENCE, TECHNOLOGY AND RESEARCH (A*STAR), priority 2007, dated 2017).

Target: T1, VHZ-GST (Homo sapiens, UniProt Q9BVJ7)
T1 construct: made in house
T1 sequence (Q9BVJ7 1-150): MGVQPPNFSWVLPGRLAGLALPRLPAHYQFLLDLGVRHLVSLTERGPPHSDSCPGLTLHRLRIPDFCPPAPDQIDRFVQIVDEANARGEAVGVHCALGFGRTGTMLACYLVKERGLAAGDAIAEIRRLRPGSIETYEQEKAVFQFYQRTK
Assay: Tyrosine phosphatase assay (EnzChek kit, fluorogenic substrate)
Assay type: biochemical
Conditions: 10 μM sodium orthovanadate added to the reaction; VHZ-GST 0.675 picomoles; fluorescence excitation/emission 358/452 nm
Procedure: The EnzChek kit (Invitrogen, R22065) is used. As per the manufacturer's protocol, the fluorogenic substrate is reconstituted in the assay wells with buffer; the desired potential PTPases (0.675 picomole for each protein: VHZ-GST, VHZ-GST+Phosphatase inhibitor, VHZ(C95S)-GST, and control GST) are added to the wells and incubated 30 min or 90 min respectively. The fluorescence is then quantified using a Gemini XPS microplate spectrofluorometer (Molecular Devices). Fluorescence is measured at 10 minute intervals at the excitation and emission wavelengths of 358 and 452 nm, respectively. The phosphatase inhibitor sodium orthovanadate (10 μM) is used in the assay as a negative control.

## [Na+].[Na+].[Na+].[O]=[V]([O-])([O-])[O-] [sodium orthovanadate]
  PTPase activity of VHZ: completely abolished
